The assay has as its target hERG potassium channel (Homo sapiens, UniProt Q12809). The assay is described as follows: fluorescence polarization, fluorescent tracer displacement. It counts as binding.

Sequence of hERG potassium channel (Q12809 whole entry): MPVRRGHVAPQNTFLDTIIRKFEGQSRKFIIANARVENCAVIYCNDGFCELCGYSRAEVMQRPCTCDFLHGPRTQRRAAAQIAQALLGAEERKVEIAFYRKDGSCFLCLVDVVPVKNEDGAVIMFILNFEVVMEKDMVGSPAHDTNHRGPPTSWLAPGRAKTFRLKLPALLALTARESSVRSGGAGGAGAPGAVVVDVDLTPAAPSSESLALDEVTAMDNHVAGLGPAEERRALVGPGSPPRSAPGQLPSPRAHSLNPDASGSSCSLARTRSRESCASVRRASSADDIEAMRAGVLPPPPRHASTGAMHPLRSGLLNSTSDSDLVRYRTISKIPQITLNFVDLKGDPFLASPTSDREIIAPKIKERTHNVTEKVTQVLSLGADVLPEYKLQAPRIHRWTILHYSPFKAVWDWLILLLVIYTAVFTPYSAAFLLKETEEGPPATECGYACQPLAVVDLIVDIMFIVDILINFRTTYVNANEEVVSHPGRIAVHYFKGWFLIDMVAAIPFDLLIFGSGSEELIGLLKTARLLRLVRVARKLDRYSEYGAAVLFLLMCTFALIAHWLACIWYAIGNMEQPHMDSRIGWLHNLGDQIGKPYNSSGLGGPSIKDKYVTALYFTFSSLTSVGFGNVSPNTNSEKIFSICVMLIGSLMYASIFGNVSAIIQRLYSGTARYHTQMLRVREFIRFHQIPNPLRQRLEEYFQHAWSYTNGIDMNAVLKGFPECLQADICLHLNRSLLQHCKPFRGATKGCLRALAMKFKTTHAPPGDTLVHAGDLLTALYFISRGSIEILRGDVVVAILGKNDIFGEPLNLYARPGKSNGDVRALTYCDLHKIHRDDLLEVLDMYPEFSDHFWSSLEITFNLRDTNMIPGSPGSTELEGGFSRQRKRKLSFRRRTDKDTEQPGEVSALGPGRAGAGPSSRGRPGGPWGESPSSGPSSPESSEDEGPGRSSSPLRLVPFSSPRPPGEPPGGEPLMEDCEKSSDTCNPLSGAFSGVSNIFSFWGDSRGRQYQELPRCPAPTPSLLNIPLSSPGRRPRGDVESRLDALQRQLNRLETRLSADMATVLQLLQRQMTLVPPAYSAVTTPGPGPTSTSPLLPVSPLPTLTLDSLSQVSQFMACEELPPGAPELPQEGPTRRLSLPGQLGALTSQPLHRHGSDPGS

What is called IC50 is the concentration at which inhibition is half-maximal. High values mean weaker potency in that assay, low ones greater potency in that assay. `Cc1c(-c2ccc(O)cc2)n(Cc2ccc(OCCN3CCCCC3)cc2)c2ccc(O)cc12` [MDL-001] showed a half-maximal inhibitory concentration (IC50) of 13 µM.

These data come from doi:10.1101/2025.01.13.632836v7 (biorxiv, 2026).
